Several values for one entry are separate records, joined by “and”; a condition that tells them apart may be missing. Identical values can stand only once.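 Growth conditions: 96-well plates. Treatment: test compound, 48 hours, 5 concentrations. Analysis: linear interpolation between bracketing concentrations; unreached endpoints set to highest concentration. GI50 = concentration required for 50% inhibition of growth. TGI marks complete inhibition of growth.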
Experiments:
Experiment in all cases: NCI-60 cell line screen, 48 h
[1] = test system: NCI-H460 lung
[2] = test system: ACHN renal
[3] = test system: SK-OV-3 ovarian
[4] = test system: SR leukemia
[5] = test system: OVCAR-5 ovarian
[6] = test system: MCF7 breast
[7] = test system: CAKI-1 renal
[8] = test system: MDA-MB-435
[9] = test system: PC-3 prostate
[10] = test system: NCI-H522 lung

Row | SMILES | TGI [1] | TGI [2] | TGI [3] | TGI [4] | TGI [5] | TGI [6] | TGI [7] | TGI [8] | TGI [9] | TGI [10] | GI50 [1] | GI50 [2] | GI50 [3] | GI50 [4] | GI50 [5] | GI50 [6] | GI50 [7] | GI50 [8] | GI50 [9] | GI50 [10]
1 | CCOC(=O)N1CCc2cc(OC)c(OC)c3c2c1cc1cc(OC)c(OC)cc13 | 28.5 µM | > 95 µM | > 51.1 µM | > 38.6 µM | > 100 µM | 32.8 µM | 84.2 µM | 2.54 µM | > 100 µM | 4.3 µM | – | – | – | – | – | – | – | – | – | –
2 | Nc1c(Br)cc(Br)c2c1[nH]c(=O)c1ccccc12 | 14.6 µM | 10.4 µM | 7.81 µM | 5.91 µM | > 100 µM | > 100 µM | 21.3 µM | > 100 µM | > 100 µM | > 100 µM | 3.33 µM | 3.18 µM | 2.85 µM | 2.39 µM | 25.7 µM | 0.577 µM | 3.69 µM | 19.5 µM | 14.4 µM | 50.9 µM
3 | CC(C)[C@H](CO)Nc1nc(Nc2ccc(C(=O)NCCNS(=O)(=O)c3cccc4c(N(C)C)cccc34)c(Cl)c2)c2ncn(C(C)C)c2n1 | > 100 µM | > 100 µM | > 100 µM | > 24.9 µM | > 100 µM | > 83 µM | > 100 µM | > 44.2 µM | > 100 µM | 6.1 µM | 3.45 µM | 5.74 µM | > 100 µM | 1.87 µM | 5.18 µM | 0.987 µM | 5.78 µM | 2.43 µM | 3.56 µM | 2.19 µM
4 | Ic1ccccc1-c1ccccc1 | > 100 µM | > 100 µM | > 100 µM | > 100 µM | > 100 µM | > 100 µM | > 100 µM | > 100 µM | > 100 µM | > 100 µM | > 100 µM | > 100 µM | > 100 µM | 18.3 µM | > 100 µM | > 100 µM | > 100 µM | > 100 µM | > 100 µM | > 100 µM
5 | C/C(=N/Nc1nc2ccccc2n1C)c1ccccn1 | 1.95 µM | 7.7 µM | 5.93 µM | > 89.7 µM | 39.7 µM | 16.1 µM | 2.14 µM | 20.7 µM | 36 µM | 9.34 µM | 0.133 µM | 0.0136 µM | 0.113 µM | 0.047 µM | 0.243 µM | 0.0276 µM | 0.104 µM | 0.229 µM | 0.0369 µM | 0.223 µM
6 | COc1cc2cc(Oc3ccc(NC(=O)Nc4cccc(C(F)(F)F)c4)cc3)c(C)nc2cc1OC | 6.02 µM | 7.71 µM | 10.6 µM | 3.33 µM | 13 µM | 5.43 µM | 4.29 µM | 10.1 µM | 5.49 µM | 4.49 µM | 1.6 µM | 1.64 µM | 2.06 µM | 1.17 µM | 3.02 µM | 1.34 µM | 1.32 µM | 1.63 µM | 1.39 µM | 1.32 µM
7 | O=C(Nc1cc(Cl)cc(Cl)c1)c1ccc(NC2=C(Cl)C(=O)N(Cc3ccc(Cl)cc3Cl)C2=O)cc1 | > 100 µM | 48.9 µM | > 100 µM | 0.238 µM | > 100 µM | 12.9 µM | > 100 µM | 57.9 µM | 25.8 µM | 34.3 µM | 16.6 µM | 19 µM | 55.3 µM | 0.0622 µM | > 100 µM | 3.18 µM | 36.8 µM | 25 µM | 13.1 µM | 15.7 µM
8 | CCC(CO)Nc1nc(NCc2ccccc2O)c2ncn(C(C)C)c2n1 (centres undefined) | 11.8 µM | > 100 µM | 41 µM | 4.1 µM | > 100 µM | 8.73 µM | 63.4 µM | 9.34 µM | 30.8 µM | 8.52 µM | 2.45 µM | 1.96 µM | 5.95 µM | 1.35 µM | 3.72 µM | 2.88 µM | 15.6 µM | 2.64 µM | 5.67 µM | 1.8 µM
9 | CC(=O)[C@@]1(O)CC[C@H]2[C@@H]3C[C@H](C)C4=CC(=O)CC[C@]4(C)[C@H]3[C@@H](O)C[C@@]21C | > 100 µM | > 100 µM | > 100 µM | > 100 µM | > 100 µM | > 100 µM | > 100 µM | > 100 µM | > 100 µM | > 100 µM | – | – | – | – | – | – | – | – | – | –
10 | O=C(/C=C/c1cccnc1)NCCCCC1CCCN(C(=O)c2ccccc2)C1 (centres undefined) | > 100 µM | > 100 µM | > 100 µM | > 100 µM | > 100 µM | > 100 µM | > 100 µM | > 100 µM | > 100 µM | > 100 µM | 0.0227 µM | > 91 µM | > 91.7 µM | 0.0617 µM | – | 37.5 µM | 9 µM | < 0.01 µM | 1.47 µM | < 0.01 µM
11 | O=C1/C(=C/c2ccccc2)CN(C(=O)c2cccnc2)C/C1=C\c1ccccc1 | 11 µM | 4.53 µM | 11.6 µM | 1.35 µM | 5.13 µM | 1.46 µM | 10.3 µM | 2.15 µM | 4.81 µM | 3.66 µM | 2.58 µM | 1.99 µM | 3.52 µM | 0.311 µM | 2 µM | 0.322 µM | 2.83 µM | 0.483 µM | 1.44 µM | 1.57 µM
12 | Nc1ncnc2c1nc(Cl)n2C1OC2COP(=O)(O)OC2C1O (centres undefined) | > 300 µM | > 300 µM | > 300 µM | > 300 µM | > 283 µM | > 300 µM | 153 µM and > 100 µM | > 255 µM | > 162 µM | > 300 µM | – | – | – | – | – | – | – | – | – | –
13 | Cc1cc(S(N)(=O)=O)c(S/C(CC(C)C)=N\Nc2ccc([N+](=O)[O-])cc2)cc1Cl | 17.8 µM | 17.4 µM | 28.2 µM | 6.26 µM | 27.9 µM | 7.27 µM | 6.85 µM | 9.42 µM | 11.9 µM | 72.2 µM | 4.09 µM | 5.44 µM | 13.7 µM | 1.84 µM | 14.8 µM | 2.36 µM | 2.24 µM | 2.92 µM | 3.16 µM | 18.8 µM
